Reference: patent publication US12472247B2, “Immune adjuvant comprising hepatitis B virus-derived polypeptide” (priority 2020, dated 2025)
Entries after “also recorded” stand apart in the source; their conditions may differ.

Experiments:
[1] = test system: dendritic cells differentiated from mouse bone marrow cells; assay: inflammatory cytokines secreted by dendritic cells (ELISA); format: cell-based; details: Poly6 0.1, 0.5, 1 μM, 24 hours
Experimental: (§1) The femur and tibia of C57BL/6 mice were isolated, and bone marrow cells therein were isolated. The isolated bone marrow cells were cultured in IMDM medium (supplemented with IL-4 and GM-CSF) to induce differentiation of dendritic cells. After culturing for 6 days, dendritic cells having 80% or more of CD11c markers were used in the experiment (FIG. 3).
When dendritic cells were treated with Poly6 peptides at concentrations of 0.1 μM, 0.5 μM, and 1 μM for 24 hours, inflammatory cytokines TNF-α, IL-6, and IL-12p40 secreted by dendritic cells were confirmed by ELISA.

[2] = test system: HBV; assay: anti-HBV effect in HBV-carrier mouse models (hydrodynamic injection); format: in vivo, hepatitis B virus
[3] = test system: HIV-1
[4] = test system: dendritic cells differentiated from mouse bone marrow cells; assay: maturation markers of dendritic cells by FACS; format: cell-based; details: Poly6 0.1, 0.5, 1 μM, 24 hours
Experimental: as §1
Dendritic cells differentiated from mouse bone marrow cells were treated with Poly6 peptides at each concentration of 0.1 μM, 0.5 μM, and 1 μM and cultured for 24 hours, and then expression of representative maturation markers CD80, CD86, and MHC I, and a migration marker CCR7 of dendritic cells were confirmed by fluorescence activated cell sorting (FACS).

[5] = test system: dendritic cells; assay: migration of Poly6-treated dendritic cells to lymph nodes after footpad injection; format: in vivo, mouse; details: for ability of activated dendritic cells to migrate to the lymph nodes: 0.1 μM of Poly6, 0.1 μg/ml of LPS, vs DCs without any treatment
Experimental: Dendritic cells activated by treatment with Poly6 peptides for 24 hours were fluorescently labeled (CFSE) and injected into C57BL/6 mice by footpad injection, and after 3 days, the inguinal lymph nodes of the mice were extracted to confirm numbers of labeled dendritic cells.

[6] = test system: peripheral blood mononuclear cells (PBMC); assay: IFN-γ-expressing T cells in PBMC treated with Poly6; format: cell-based; details: human PBMC, IL-2 three days, Poly6 at various concentrations

Substance | amounts of TNF-α, IL-6, and IL-12p40 secreted by dendritic cells [1] | anti-HBV effects [2] | anti-HIV-1 effects [3] | expression level of the maturation markers of dendritic cells (CD80, CD86, MHC I, CCR7) [4] | ability of activated dendritic cells to migrate to the lymph nodes [5] | numbers of dendritic cells found in the lymph nodes ([5]; DCs treated with 0.1 μM Poly6, footpad injection, 3 days, vs untreated DCs) | IFN-γ-expressing T cells [6]
GRLVFQ (poly6 peptide) | amounts of TNF-α, IL-6, and IL-12p40 secreted by dendritic cells increased | anti-HBV effects in HBV-carrier mouse models were also observed | showed anti-HIV-1 effects | increased as the concentration of treated Poly6 increased | have an ability to migrate to the lymph nodes on their own | increased statistically significantly | significantly increased IFN-γ-expressing T cells compared to a group treated with PBS; also recorded: concentration-dependent trend was also observed
lipopolysaccharide [LPS, reference compound] |  |  |  |  | have an ability to migrate to the lymph nodes on their own |  | 
